Results reported in patent US10624916B2, “Nutritional formulations using human milk oligosaccharides for modulating inflammation” (ABBOTT LABORATORIES, priority 2012, dated 2020).

Tested on: platelet neutrophil complex (PNC) formation
Assay: in vitro simulation of PNC formation (ADP-stimulated, % CD11b+CD42a+ events)
Assay type: cell-based, human
Conditions: 125 μg/mL; for individuals in whom PNC formation decreased: 3 donors, Table 4; for effect on PNC formation (in words): 15 minute ingredient incubation, n=2-3 individuals, FIG. 1; for % CD11b+CD42a+ in the tested condition as a percent of those events that were CD11b+CD42a+ under ADP stimulation, average: average of subjects; for % CD11b+CD42a+ in the tested condition as a percent of those events that were CD11b+CD42a+ under ADP stimulation, average / % CD11b+CD42a+ in the tested condition as a percent of those events that were CD11b+CD42a+ under ADP stimulation: 15 minutes with ingredient, then ADP (10 μM) 15 minutes
Experimental: Data was generated using an in vitro simulation of PNC formation with a 15 minute ingredient incubation period.
Test concentration was 125 μg/mL for all ingredients tested. Cells were incubated with test ingredients or medium alone (ADP) for 15 minutes. ADP (10 μM) was added to each tube and incubated for 15 minutes. The ADP alone contained no test ingredient. Data is expressed as % CD11b+CD42a+ in the tested conditions as a percent of those events that were CD11b+CD42a+ under ADP stimulation.

| Compound | individuals in whom PNC formation decreased | effect on PNC formation (in words) | % CD11b+CD42a+ in the tested condition as a percent of those events that were CD11b+CD42a+ under ADP stimulation, average | % CD11b+CD42a+ in the tested condition as a percent of those events that were CD11b+CD42a+ under ADP stimulation (subject 1) | % CD11b+CD42a+ in the tested condition as a percent of those events that were CD11b+CD42a+ under ADP stimulation (subject 2) | % CD11b+CD42a+ in the tested condition as a percent of those events that were CD11b+CD42a+ under ADP stimulation (subject 3) |
| --- | --- | --- | --- | --- | --- | --- |
| 2′-fucosyllactose [2′FL] | decreased PNC formation in all 3 individuals tested | significantly reduces PNC formation | 66.9% | 87.8% | 62.1% | 50.7% |
| 3-fucosyllactose [3FL] | – | did not decrease PNC formation | 83.1% | 80.8% | 64.3% | 104.1% |
| CC(=O)N[C@H]1[C@H](O[C@H]2[C@@H](O)[C@@H](CO)O[C@@H](O[C@H]3[C@H](O)[C@@H](O)C(O)O[C@@H]3CO)[C@@H]2O)O[C@H](CO)[C@@H](O[C@@H]2O[C@H](CO)[C@H](O)[C@H](O)[C@H]2O)[C@@H]1O (mixture of isomers) [LNnT, lacto-N-neotetraose] | decreased PNC formation in 2 out of the 3 subjects tested | – | 75.4% | 102.3% | 82.9% | 41.1% |
| CC(=O)N[C@H]1[C@H]([C@H](O)[C@H](O)CO)O[C@@](O[C@H]2[C@@H](O)[C@@H](CO)O[C@@H](O[C@H]3[C@H](O)[C@@H](O)C(O)O[C@@H]3CO)[C@@H]2O)(C(=O)O)C[C@@H]1O (some centres unmarked) [3′SL, 3′-sialyllactose, reference compound] | – | do not decrease PNC formation | 99.2% | 91.3% | 89.3% | 117.1% |
| CC(=O)N[C@H]1[C@H]([C@H](O)[C@H](O)CO)O[C@@](OC[C@H]2O[C@@H](O[C@H]3[C@H](O)[C@@H](O)[C@H](O)O[C@@H]3CO)[C@H](O)[C@@H](O)[C@H]2O)(C(=O)O)C[C@@H]1O [6′SL, 6′-sialyllactose, reference compound] | – | do not decrease PNC formation | 94.2% | 90.1% | 59.8% | 132.8% |
